Laboratory results: the supplement of paper PMC10627819

Experiments:
[1] = tested on: S. aureus DSM 20231; assay: Bliss interaction score (quartile over a dose matrix) (fitness difference); higher = more antagonism (negative = synergy)
Summary of the method: (§1)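 Each OD595 reading at entry into stationary phase was scaled to the robust mean of the untreated wells on its plate, with a ceiling of 1. These ratios define fitness, and single-drug fitness was inferred from combinations. The Bliss score compares observed fitness with the product-based expectation and is reported as quartiles across all replicate types, technical, biological and donor/recipient.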

[2] = tested on: S. pneumoniae D39V; assay: as above
Summary of the method: as §1

[3] = tested on: B. subtilis 168; assay: as above
Summary of the method: as §1

[4] = tested on: S. aureus Newman; assay: as above
Summary of the method: as §1

[5] = tested on: S. pneumoniae D39V; assay: fitness (endpoint OD595 vs no drug) (fraction); higher = more growth
Summary of the method: (§2)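 Plates with 384 wells were inoculated at OD595 0.01 using 30 µl of TSB, LB Lennox or CY, or 55 µl for S. pneumoniae. Incubation was at 37 °C, with OD595 measured every 30 min for 14 h. Fitness is the stationary-phase transition optical density over the robust mean of no-drug control wells, after first-reading background subtraction; it is capped at 1.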

[6] = tested on: B. subtilis 168; assay: as above
Summary of the method: as §2

[7] = tested on: S. aureus Newman; assay: as above
Summary of the method: as §2
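Throughout, for Bliss interaction score (quartile over a dose matrix): first quartile when negative (synergy) and third quartile when positive (antagonism).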

CC1=C(C(=O)O)N2C(=O)[C@@H](NC(=O)[C@H](N)c3ccccc3)[C@H]2SC1 [Cephalexin] + Cc1cc(NS(=O)(=O)c2ccc(N)cc2)no1 [Sulfamethoxazol]
Conditions | Bliss interaction score
[1] | 0.059
[2] | 0.0504
[3] | 0.0517
[4] | -0.021

fitness, one replicate
Conditions | first compound 0.125 µg/mL | first compound 0.25 µg/mL | first compound 0.5 µg/mL | first compound 1 µg/mL | first compound 2 µg/mL | first compound 4 µg/mL
[5], partner 1 µg/mL | 0.92 | 0.925 | 0.933 | 0.678 | 0.0509 | 0
[5], partner 2 µg/mL | 0.961 | 0.937 | 0.979 | 0.717 | 0.165 | 0.0786
[5], partner 4 µg/mL | 0.963 | 0.972 | 0.954 | 0.685 | 0.209 | 0.013
[6], partner 0.5 µg/mL | – | 0.987 | ≥ 1 | ≥ 1 | – | –
[6], partner 1 µg/mL | – | – | – | 0.861 | – | –
[6], partner 2 µg/mL | – | – | – | 0.809 | – | –
[7], partner 2 µg/mL | – | – | – | – | ≥ 1 | –
[7], partner 4 µg/mL | – | – | – | – | ≥ 1 | –
[7], partner 8 µg/mL | – | – | 0.944 | ≥ 1 | ≥ 1 | –

fitness
Conditions | first compound 0.125 µg/mL | first compound 0.25 µg/mL | first compound 0.5 µg/mL | first compound 1 µg/mL
[6], partner 1 µg/mL | 0.951 | 0.924 | 0.895 | –
[6], partner 2 µg/mL | 0.904 | 0.937 | 0.902 | –
[6], partner 4 µg/mL | 0.955 | 0.929 | 0.945 | –
[7], partner 1 µg/mL | – | ≥ 1 | 0.988 | 1
[7], partner 2 µg/mL | – | ≥ 1 | 0.979 | 0.983
[7], partner 4 µg/mL | – | 0.999 | ≥ 1 | ≥ 1

CC1=C(C(=O)O)N2C(=O)[C@@H](NC(=O)[C@H](N)c3ccccc3)[C@H]2SC1 [Cephalexin] + Cc1ncc([N+](=O)[O-])n1CCO [Metronidazole]
Conditions | Bliss interaction score
[1] | 0.0322
[2] | 0.132
[3] | -0.0395
[4] | 0.0215

fitness, one replicate
Conditions | first compound 0.125 µg/mL | first compound 0.25 µg/mL | first compound 0.5 µg/mL | first compound 1 µg/mL
[5], partner 1.25 µg/mL | ≥ 1 | 0.989 | ≥ 1 | –
[5], partner 2.5 µg/mL | ≥ 1 | ≥ 1 | ≥ 1 | –
[5], partner 5 µg/mL | 0.971 | ≥ 1 | ≥ 1 | –
[7], partner 0.781 µg/mL | – | 0.989 | ≥ 1 | ≥ 1
[7], partner 1.562 µg/mL | – | ≥ 1 | ≥ 1 | ≥ 1
[7], partner 3.124 µg/mL | – | 0.998 | ≥ 1 | ≥ 1

fitness
Conditions | partner 0.625 µg/mL | partner 1.073 µg/mL | partner 1.25 µg/mL | partner 2.145 µg/mL | partner 2.5 µg/mL | partner 4.29 µg/mL
[5], first compound 4 µg/mL | – | 0.0041 | – | 0.0332 | – | 0.0078
[6], first compound 0.125 µg/mL | 0.958 | – | 0.936 | – | 0.963 | –
[6], first compound 0.25 µg/mL | 0.94 | – | 0.91 | – | 0.86 | –
[6], first compound 0.5 µg/mL | 0.943 | – | 0.932 | – | 0.926 | –
[7], first compound 0.25 µg/mL | 0.962 | – | ≥ 1 | – | ≥ 1 | –
[7], first compound 0.5 µg/mL | 0.994 | – | 0.984 | – | ≥ 1 | –
[7], first compound 1 µg/mL | ≥ 1 | – | ≥ 1 | – | ≥ 1 | –

CC1=C(C(=O)O)N2C(=O)[C@@H](NC(=O)[C@H](N)c3ccccc3)[C@H]2SC1 [Cephalexin] + Cc1onc(-c2ccccc2)c1C(=O)N[C@@H]1C(=O)N2[C@@H]1SC(C)(C)[C@@H]2C(=O)O [Oxacillin]
Conditions | Bliss interaction score
[1] | 0.0592
[2] | -0.216
[3] | 0.0457
[4] | 0.0632

fitness, one replicate
Conditions | first compound 0.125 µg/mL | first compound 0.25 µg/mL | first compound 0.5 µg/mL | first compound 1 µg/mL
[5], partner 0.01 µg/mL | ≥ 1 | 0.989 | 0.99 | –
[5], partner 0.02 µg/mL | 0.92 | 0.897 | 0.886 | –
[5], partner 0.04 µg/mL | 0.175 | 0.196 | 0.124 | –
[6], partner 0.075 µg/mL | – | 0.65 | 0.551 | 0.563
[6], partner 0.15 µg/mL | – | 0.0401 | 0.0556 | 0.0643
[6], partner 0.3 µg/mL | – | 0.0429 | 0.0316 | 0.051

Conditions | fitness
[5], first compound 1 µg/mL, partner 0.02 µg/mL | 0.171
[5], first compound 1 µg/mL, partner 0.04 µg/mL | 0.0188
[5], first compound 2 µg/mL, partner 0.01 µg/mL | 0.1
[5], first compound 2 µg/mL, partner 0.02 µg/mL | 0.044
[5], first compound 2 µg/mL, partner 0.04 µg/mL | 0.0313
[5], first compound 4 µg/mL, partner 0.01 µg/mL | 0.0222
[5], first compound 4 µg/mL, partner 0.02 µg/mL | 0.0259
[5], first compound 4 µg/mL, partner 0.04 µg/mL | 0.0275
[6], first compound 0.125 µg/mL, partner 0.002 µg/mL | 0.975
[6], first compound 0.125 µg/mL, partner 0.004 µg/mL | 0.879
[6], first compound 0.125 µg/mL, partner 0.008 µg/mL | 0.896
[6], first compound 0.25 µg/mL, partner 0.002 µg/mL | 0.911
[6], first compound 0.25 µg/mL, partner 0.004 µg/mL | 0.948
[6], first compound 0.25 µg/mL, partner 0.008 µg/mL | 0.879
[6], first compound 0.5 µg/mL, partner 0.002 µg/mL | 0.925
[6], first compound 0.5 µg/mL, partner 0.004 µg/mL | 0.961
[6], first compound 0.5 µg/mL, partner 0.008 µg/mL | 0.97
[7], first compound 0.25 µg/mL, partner 0.0156 µg/mL | 0.803
[7], first compound 0.25 µg/mL, partner 0.0312 µg/mL | 0.761
[7], first compound 0.25 µg/mL, partner 0.0625 µg/mL | 0.727
[7], first compound 0.5 µg/mL, partner 0.0156 µg/mL | 0.768
[7], first compound 0.5 µg/mL, partner 0.0312 µg/mL | 0.749
[7], first compound 0.5 µg/mL, partner 0.0625 µg/mL | 0.675
[7], first compound 1 µg/mL, partner 0.0156 µg/mL | 0.721
[7], first compound 1 µg/mL, partner 0.0312 µg/mL | 0.72
[7], first compound 1 µg/mL, partner 0.0625 µg/mL | 0.651
